Test results published in patent US9833497B2, “Human originated EGF domain proteins and use of the same” (CHENGDU SOURCEBIO LIMITED-LIABILITY COMPANY, priority 2013, dated 2017).

Assays:
Assay type in all cases: cell-based
Proteus vulgaris = test: MIC against Gram-negative bacteria: Proteus vulgaris; details: 5×10^5 CFU/mL; for MIC (μg/mL) P. vulgaris / MIC against P. vulgaris: Proteus vulgaris
Procedure: (§1) 1. Gram-negative bacteria, such as E. coli BL21, Pseudomonas aeruginosa, Klebsiella pneumonia, Enterobacter cloacae, Aeromonas hydrophila, Citrobacter diversus, Moraxella catarrhalis, Proteus mirabilis, Proteus vulgaris, Serratia marcescens, etc were streaked on solid LB medium and cultured respectively. Then, typical clones were picked, inoculated into common liquid LB medium respectively, and cultured at 37° C. with shaking at 185 rpm until the McFarland specific turbidity was 0.5. The bacterial culture of each of Gram-negative bacteria was centrifuged at 4000×g for 3 min, the supernatant was discarded, and the thalli were resuspended with fresh LB medium.
(§2) 2. The above-mentioned bacterial suspensions were diluted and inoculated into 96-well plates with the final concentration of the bacterial suspension being 5×10^5 CFU/mL per well.
(§3) 3. Each of the purified human-originated EGF domain proteins (PRT1 to PRT1498 in Table 1) was added to each of the above wells and subjected to two-fold serial dilution in concentration. Three parallel wells were set up for each concentration in the gradient.
(§4) 4. The above-mentioned 96-well plates were placed and cultured at 37° C. in shaking incubator shaking at 175 rpm. […] The minimal inhibitory concentration MIC is defined as the lowest concentration of the recombinant protein at which there is no growth of the bacteria.

Enterobacter cloacae = test: MIC against Gram-negative bacteria: Enterobacter cloacae; details: 5×10^5 CFU/mL; for MIC (μg/mL) E. cloacae / MIC against E. cloacae: Enterobacter cloacae
Procedure: as §1, §2, §3, §4

E. coli DH5α = test: Antibacterial activity: MIC and growth curve against E. coli DH5α in 96-well plate; details: minimal inhibitory concentration against E. coli DH5α; 96-well plate, 5×10^5 CFU/mL, 37° C., judged after 8 h
Procedure: 1. E. coli DH5α was exemplified. E. coli DH5α was streaked and cultured on LB solid medium. Then, a typical clone was picked and inoculated into common LB liquid medium, cultured at 37° C. with shaking at 185 rpm until the logarithmic growth phase was reached (OD600 of about 0.5). The bacterial culture was centrifuged at 4000×g for 3 min, the supernatant was discarded, and the thalli were resuspended with fresh LB medium.
2. The above-mentioned bacterial suspension was diluted and inoculated into a 96-well plate with the total volume of 100 μL per well and a bacterial count of 5×10^5 CFU/mL.
3. The recombinant protein hF VII-EGF1 was added to the above-mentioned wells with the final protein concentration in the well of the highest protein concentration being 50 μg/mL. Basing on this final concentration, a two-fold serial dilution was performed till a protein concentration gradient consisting of 50, 25, and 12.5 μg/mL was set up. Three parallel wells were set up for each concentration in the gradient.
as §4, with “plate was” for “plates were”, “rpm. Samples were taken every 30 min, the absorbance values were determined at 600 nm wavelength under a ultra violet spectrophotometer, and an inhibition curve was plotted.” for “rpm.”
According to the experimental procedures in Example 14, the minimal inhibitory concentrations (MIC, μg/mL) of the other human-originated EGF domain proteins (PRT2 to PRT1498 in Table 1) for E. coli DH5α were determined.

Proteus mirabilis = test: MIC against Gram-negative bacteria: Proteus mirabilis; details: 5×10^5 CFU/mL; for MIC (μg/mL) P. mirabilis / MIC against P. mirabilis: Proteus mirabilis
Procedure: as §1, §2, §3, §4

Citrobacter diversus = test: MIC against Gram-negative bacteria: Citrobacter diversus; details: 5×10^5 CFU/mL; for MIC (μg/mL) C. diversus / MIC against C. diversus: Citrobacter diversus
Procedure: as §1, §2, §3, §4

Pseudomonas aeruginosa = test: MIC against Gram-negative bacteria: Pseudomonas aeruginosa; details: 5×10^5 CFU/mL; for MIC (μg/mL) P. aeruginosa / MIC against P. aeruginosa: Pseudomonas aeruginosa
Procedure: as §1, §2, §3, §4

Moraxella catarrhalis = test: MIC against Gram-negative bacteria: Moraxella catarrhalis; details: 5×10^5 CFU/mL; for MIC (μg/mL) M. catarrhalis / MIC against M. catarrhalis: Moraxella catarrhalis
Procedure: as §1, §2, §3, §4

Aeromonas hydrophila = test: MIC against Gram-negative bacteria: Aeromonas hydrophila; details: 5×10^5 CFU/mL; for MIC (μg/mL) A. hydrophila / MIC against A. hydrophila: Aeromonas hydrophila
Procedure: as §1, §2, §3, §4

E. coli BL21 = test: MIC against Gram-negative bacteria: E. coli BL21; details: 5×10^5 CFU/mL
Procedure: as §1, §2, §3, §4

Serratia marcescens = test: MIC against Gram-negative bacteria: Serratia marcescens; details: 5×10^5 CFU/mL; for MIC (μg/mL) S. marcescens / MIC against S. marcescens: Serratia marcescens
Procedure: as §1, §2, §3, §4

Klebsiella pneumonia = test: MIC against Gram-negative bacteria: Klebsiella pneumonia; details: 5×10^5 CFU/mL; for MIC (μg/mL) K. pneumonia / MIC against K. pneumonia: Klebsiella pneumonia
Procedure: as §1, §2, §3, §4

[1] = 10 h cultivation at 37° C., two-fold serial dilution

PRT25 (PGVCRNGGTCTDAPNGGFRCQCPAGGAFEGPRCE; listed as Homo sapiens)
12.5 µg/mL: MIC (μg/mL) P. mirabilis (Proteus mirabilis; 96-well plate, 37° C., 10 h) | MIC (μg/mL) A. hydrophila (Aeromonas hydrophila; 96-well plate, 37° C., 10 h) | MIC (μg/mL) S. marcescens (Serratia marcescens; 96-well plate, 37° C., 10 h)
25 µg/mL: MIC (μg/mL) P. vulgaris (Proteus vulgaris; 96-well plate, 37° C., 10 h) | MIC (μg/mL) E. cloacae (Enterobacter cloacae; 96-well plate, 37° C., 10 h) | MIC (μg/mL) P. aeruginosa (Pseudomonas aeruginosa; 96-well plate, 37° C., 10 h) | MIC (μg/mL) M. catarrhalis (Moraxella catarrhalis; 96-well plate, 37° C., 10 h)
100 µg/mL: MIC (μg/mL) C. diversus (Citrobacter diversus; 96-well plate, 37° C., 10 h)
50 µg/mL: MIC (E. coli DH5α) | MIC (μg/mL) E. coli BL21 (E. coli BL21; 96-well plate, 37° C., 10 h) | MIC (μg/mL) K. pneumonia (Klebsiella pneumonia; 96-well plate, 37° C., 10 h)

PRT45 (SINSCPNNCSGHGKCTTSVSVPSQVYCECDKYWKGEACD; listed as Homo sapiens)
12.5 µg/mL: MIC (μg/mL) P. vulgaris (Proteus vulgaris; 96-well plate, 37° C., 10 h) | MIC (μg/mL) C. diversus (Citrobacter diversus; 96-well plate, 37° C., 10 h) | MIC (μg/mL) P. aeruginosa (Pseudomonas aeruginosa; 96-well plate, 37° C., 10 h)
25 µg/mL: MIC (μg/mL) M. catarrhalis (Moraxella catarrhalis; 96-well plate, 37° C., 10 h) | MIC (μg/mL) A. hydrophila (Aeromonas hydrophila; 96-well plate, 37° C., 10 h) | MIC (μg/mL) E. coli BL21 (E. coli BL21; 96-well plate, 37° C., 10 h) | MIC (μg/mL) K. pneumonia (Klebsiella pneumonia; 96-well plate, 37° C., 10 h)
50 µg/mL: MIC (μg/mL) E. cloacae (Enterobacter cloacae; 96-well plate, 37° C., 10 h) | MIC (E. coli DH5α) | MIC (μg/mL) P. mirabilis (Proteus mirabilis; 96-well plate, 37° C., 10 h) | MIC (μg/mL) S. marcescens (Serratia marcescens; 96-well plate, 37° C., 10 h)

PRT1104 (EVDECASDPCKNEATCLNEIGRYTCICPHNYSGVNCE; listed as Homo sapiens)
12.5 µg/mL: MIC M. catarrhalis (Moraxella catarrhalis; [1]) | MIC E. coli BL21 (E. coli BL21; [1]) | MIC K. pneumonia (Klebsiella pneumonia; [1])
50 µg/mL: MIC P. vulgaris (Proteus vulgaris; [1]) | MIC (E. coli DH5α) | MIC P. aeruginosa (Pseudomonas aeruginosa; [1]) | MIC A. hydrophila (Aeromonas hydrophila; [1])
25 µg/mL: MIC E. cloacae (Enterobacter cloacae; [1]) | MIC P. mirabilis (Proteus mirabilis; [1]) | MIC C. diversus (Citrobacter diversus; [1]) | MIC S. marcescens (Serratia marcescens; [1])

PRT1306 (CSLLCLPKANNSRSCRCPEDVSSSVLPSGDLMCDCPQGYQLKNNTCV; listed as Homo sapiens)
12.5 µg/mL: MIC against E. cloacae (Enterobacter cloacae; 96-well plate, 37° C., 10 h) | MIC against P. mirabilis (Proteus mirabilis; 96-well plate, 37° C., 10 h) | MIC against P. aeruginosa (Pseudomonas aeruginosa; 96-well plate, 37° C., 10 h)
50 µg/mL: MIC against C. diversus (Citrobacter diversus; 96-well plate, 37° C., 10 h) | MIC against E. coli BL21 (E. coli BL21; 96-well plate, 37° C., 10 h) | MIC against S. marcescens (Serratia marcescens; 96-well plate, 37° C., 10 h) | MIC against K. pneumonia (Klebsiella pneumonia; 96-well plate, 37° C., 10 h)
25 µg/mL: MIC against P. vulgaris (Proteus vulgaris; 96-well plate, 37° C., 10 h) | MIC (E. coli DH5α) | MIC against M. catarrhalis (Moraxella catarrhalis; 96-well plate, 37° C., 10 h) | MIC against A. hydrophila (Aeromonas hydrophila; 96-well plate, 37° C., 10 h)

PRT1477 (DIDECSENMCAQLCVNYPGGYTCYCDGKKGFKLAQDQKSCE; listed as Homo sapiens)
50 µg/mL: MIC against P. vulgaris (Proteus vulgaris; 10 h cultivation at 37° C.) | MIC (E. coli DH5α) | MIC against P. aeruginosa (Pseudomonas aeruginosa; 10 h cultivation at 37° C.) | MIC against A. hydrophila (Aeromonas hydrophila; 10 h cultivation at 37° C.)
25 µg/mL: MIC against E. cloacae (Enterobacter cloacae; 10 h cultivation at 37° C.) | MIC against P. mirabilis (Proteus mirabilis; 10 h cultivation at 37° C.) | MIC against C. diversus (Citrobacter diversus; 10 h cultivation at 37° C.)
12.5 µg/mL: MIC against M. catarrhalis (Moraxella catarrhalis; 10 h cultivation at 37° C.) | MIC against E. coli BL21 (E. coli BL21; 10 h cultivation at 37° C.) | MIC against S. marcescens (Serratia marcescens; 10 h cultivation at 37° C.) | MIC against K. pneumonia (Klebsiella pneumonia; 10 h cultivation at 37° C.)
